Data taken from patent US20250034216A1, “STEREOSELECTIVE COVALENT LIGANDS FOR ONCOGENIC AND IMMUNOLOGICAL PROTEINS” (The Scripps Research Institute, priority 2021, published 2025).

Key:
MMS19_C819 = biological target: T1, MMS19_C819 (Homo sapiens, UniProt Q96T76); test: IA-DTB cysteine engagement; format: binding; details: 22Rv1 cells, 20 μM probe, 1 h, relative to DMSO
T1 construct: endogenous in cells; host or cells: 22Rv1
T1 sequence (Q96T76 1-1030): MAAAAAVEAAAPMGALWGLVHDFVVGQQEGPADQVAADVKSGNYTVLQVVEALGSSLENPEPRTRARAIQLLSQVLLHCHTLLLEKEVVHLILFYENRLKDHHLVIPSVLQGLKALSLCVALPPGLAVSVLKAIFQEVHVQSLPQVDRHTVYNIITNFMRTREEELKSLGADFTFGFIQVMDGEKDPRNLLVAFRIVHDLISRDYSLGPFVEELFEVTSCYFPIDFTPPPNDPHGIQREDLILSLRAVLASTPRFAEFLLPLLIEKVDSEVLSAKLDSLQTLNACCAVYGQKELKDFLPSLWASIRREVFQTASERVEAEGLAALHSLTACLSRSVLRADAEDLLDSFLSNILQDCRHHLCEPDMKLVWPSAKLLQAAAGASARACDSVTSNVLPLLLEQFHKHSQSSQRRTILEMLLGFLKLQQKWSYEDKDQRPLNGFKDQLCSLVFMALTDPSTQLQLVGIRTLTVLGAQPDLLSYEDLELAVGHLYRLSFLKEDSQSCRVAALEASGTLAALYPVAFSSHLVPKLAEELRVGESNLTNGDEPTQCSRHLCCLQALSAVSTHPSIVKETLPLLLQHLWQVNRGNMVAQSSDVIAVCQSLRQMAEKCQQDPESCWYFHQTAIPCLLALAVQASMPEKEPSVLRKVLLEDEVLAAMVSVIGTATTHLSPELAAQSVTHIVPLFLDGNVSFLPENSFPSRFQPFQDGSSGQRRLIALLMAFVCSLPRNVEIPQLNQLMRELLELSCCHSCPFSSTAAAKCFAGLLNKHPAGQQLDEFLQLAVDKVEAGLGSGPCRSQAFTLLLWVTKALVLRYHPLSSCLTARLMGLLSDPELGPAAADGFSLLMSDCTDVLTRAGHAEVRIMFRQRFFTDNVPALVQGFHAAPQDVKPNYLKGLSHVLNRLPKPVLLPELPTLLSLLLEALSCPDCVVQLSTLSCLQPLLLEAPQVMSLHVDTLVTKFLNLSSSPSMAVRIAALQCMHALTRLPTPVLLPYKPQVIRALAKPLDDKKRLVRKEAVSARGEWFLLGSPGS
Procedure, shortened: (§1)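 First, cells are exposed to electrophilic probes in situ. Next, lysates are labeled with IA-DTB (1 h, ambient temperature), reduced, alkylated and trypsin-digested. Then, IA-DTB peptides are enriched on streptavidin, TMT-labeled and analyzed, with ratios taken against DMSO channels.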

NUDT16L1_C88 = biological target: T2, NUDT16L1_C88 (Homo sapiens, UniProt Q9BRJ7); test: IA-DTB cysteine engagement; format: binding; details: 22Rv1 cells, relative to DMSO; for % engagement NUDT16L1_C88: 20 μM probe, 1 h; for % engagement NUDT16L1_88: 5 μM probe, 1 h (FIG. 5B)
T2 construct: endogenous in cells; host or cells: 22Rv1
T2 sequence (Q9BRJ7 whole entry): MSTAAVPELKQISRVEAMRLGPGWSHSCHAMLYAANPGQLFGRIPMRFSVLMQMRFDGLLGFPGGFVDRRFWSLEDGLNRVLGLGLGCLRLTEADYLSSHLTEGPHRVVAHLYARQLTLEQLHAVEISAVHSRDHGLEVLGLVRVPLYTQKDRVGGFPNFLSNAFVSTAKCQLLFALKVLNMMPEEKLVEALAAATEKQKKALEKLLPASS
Procedure, shortened: as §1

| SMILES | % engagement MMS19_C819 (MMS19_C819) [%] | % engagement NUDT16L1_C88 (NUDT16L1_C88) [%] | % engagement NUDT16L1_88 (NUDT16L1_C88) [%] |
| --- | --- | --- | --- |
| C=CC(=O)N1C[C@@H](c2ccc(Br)cc2)[C@H]1C(=O)Nc1cccc2cccnc12 [MY-1A, (2S,3R)-1-acryloyl-3-(4-bromophenyl)-N-(quinolin-8-yl)azetidine-2-carboxamide] | 1.5 | 33.25 | – |
| C=CC(=O)N1C[C@H](c2ccc(Br)cc2)[C@@H]1C(=O)Nc1cccc2cccnc12 [MY-1B, (2R,3S)-1-acryloyl-3-(4-bromophenyl)-N-(quinolin-8-yl)azetidine-2-carboxamide] | 90 | 88.5 | 67.63 |
| C=CC(=O)N1C[C@H](c2ccc(Br)cc2)[C@H]1C(=O)Nc1cccc2cccnc12 [MY-3A, (2S,3S)-1-acryloyl-3-(4-bromophenyl)-N-(quinolin-8-yl)azetidine-2-carboxamide] | −10 | 14.5 | – |
| C=CC(=O)N1C[C@H](c2ccc(Br)cc2)[C@H]1C(=O)Nc1cccc2cccnc12 [MY-3B, (2S,3S)-1-acryloyl-3-(4-bromophenyl)-N-(quinolin-8-yl)azetidine-2-carboxamide] | 11 | 87.5 | – |
| CC#CC(=O)N1C[C@H](c2ccc(Br)cc2)[C@@H]1C(=O)Nc1cccc2cccnc12 [MY-45B, (2R,3S)-3-(4-bromophenyl)-1-(but-2-ynoyl)-N-(quinolin-8-yl)azetidine-2-carboxamide] | – | – | 9.38 |
